Read-outs that look alike come from different tables or passages of the source.
Assays:
[1] = Cytotoxicity assay in MT-4 cells; type: cell-based, human; conditions: human, uninfected MT-4 cells, 5 days incubation; read-out: CC50
Experimental: Each plate contained up to 8 test compounds, with negative (No Drug Control) and 5 μM AZT positive controls. MT-4 cells were pre-infected with 10 μL of either RPMI (mock-infected) or a fresh 1:250 dilution of HIV-1 IIIB concentrated virus stock. Infected and uninfected MT-4 cells were further diluted in complete RPMI media and added to each plate using a Micro Flow dispenser. After 5 days incubation in a humidified and temperature controlled incubator (37° C.), Cell Titer Glo (Promega) was added to the assay plates and chemiluminescence read using an Envision plate-reader. […] Assays were performed as above except uninfected MT-4 cells were added to each well containing test compound. In addition, 10 μM puromycin was added to the last column of each assay plate to assess a base level of cytotoxicity.

[2] = tested on: HIV-1 (IIIB); test: Antiviral assay in MT-4 cells (HIV MT-4 antiviral assay); type: cell-based; conditions: Human immunodeficiency virus 1, IIIB, MT4, 120 h, HIV-1 (IIIB) in MT-4 cells, 5 days incubation
Experimental: Compounds were tested in a high-throughput 384-well assay format for their ability to inhibit the replication of HIV-1 (IIIB) in MT-4 cells. Compounds were serially diluted (1:3) in DMSO on 384-well polypropylene plates and further diluted 200-fold into complete RPMI media (10% FBS, 1% P/S) using the Biotek Micro Flow and Labcyte ECHO acoustic dispenser. Each plate contained up to 8 test compounds, with negative (No Drug Control) and 5 μM AZT positive controls. MT-4 cells were pre-infected with 10 μL of either RPMI (mock-infected) or a fresh 1:250 dilution of HIV-1 IIIB concentrated virus stock. Infected and uninfected MT-4 cells were further diluted in complete RPMI media and added to each plate using a Micro Flow dispenser. After 5 days incubation in a humidified and temperature controlled incubator (37° C.), Cell Titer Glo (Promega) was added to the assay plates and chemiluminescence read using an Envision plate-reader.

| Compound | EC50 ([2]; read-out: EC50) | CC50 at 5 days [1] | EC50 [2] |
| --- | --- | --- | --- |
| O=C(NCc1ccc(F)cc1F)c1cn2c(c(O)c1=O)C(=O)N1C[C@H]2CCC(F)(F)C1 [Example 4-1, (7R)—N-(2,4-difluorobenzyl)-4,4-difluoro-12-hydroxy-1,11-dioxo-1,4,5,6,7,11-hexahydro-3H-2,7-methanopyrido[1,2-a][1,4]diazonine-10-carboxamide] | 0.0064 µM | 23.3 µM |  |
| O=C(NCc1ccc(F)c(Cl)c1F)c1cn2c(c(O)c1=O)C(=O)N1C[C@H]2CCc2ccc(F)cc21 [Example 90-1, (12R)—N-(3-chloro-2,4-difluorobenzyl)-3-fluoro-7-hydroxy-6,8-dioxo-6,8,13,14-tetrahydro-12H-5,12-methanobenzo[e]pyrido[1,2-a][1,4]diazonine-9-carboxamide] | 0.0241 µM | > 32.6 µM |  |
| O=C(NCc1c(F)cc(F)cc1F)c1cn2c(c(O)c1=O)C(=O)N1CCCC2CC1 (racemic) [Example 24, 11-hydroxy-1,10-dioxo-N-(2,4,6-trifluorobenzyl)-1,3,4,5,6,10-hexahydro-2,6-ethanopyrido[1,2-a][1,4]diazocine-9-carboxamide] | 0.0273 µM | 13.8 µM |  |
| O=C(NCc1c(F)cc(F)cc1F)c1cn2c(c(O)c1=O)C(=O)N1C[C@@H]2CCc2cc(Cl)ccc21 [Example 48-1, (12S)-2-chloro-7-hydroxy-6,8-dioxo-N-(2,4,6-trifluorobenzyl)-6,8,13,14-tetrahydro-12H-5,12-methanobenzo[e]pyrido[1,2-a][1,4]diazonine-9-carboxamide] | > 0.034 µM | > 13.8 µM |  |
| O=C(NCc1ccc(F)cc1F)c1cn2c(c(O)c1=O)C(=O)N1CCCC(O)(C(F)F)[C@H]2C1 (stereo partly drawn) [Example 76, (7R)—N-(2,4-difluorobenzyl)-6-(difluoromethyl)-6,12-dihydroxy-1,11-dioxo-1,4,5,6,7,11-hexahydro-3H-2,7-methanopyrido[1,2-a][1,4]diazonine-10-carboxamide] | 0.00799 µM | 23.7 µM |  |
| CO[C@H]1CC[C@H]2CN(C1)C(=O)c1c(O)c(=O)c(C(=O)NCc3c(F)cc(F)cc3F)cn12 [Example 91, (4S,7S)-12-hydroxy-4-methoxy-1,11-dioxo-N-(2,4,6-trifluorobenzyl)-1,4,5,6,7,11-hexahydro-3H-2,7-methanopyrido[1,2-a][1,4]diazonine-10-carboxamide] | 0.0232 µM | > 50 µM |  |
| O=C(NCc1ccc(F)cc1F)c1cn2c(c(O)c1=O)C(=O)N1C[C@H]2CCc2ccccc21 (single isomer, unassigned) [Example 37-1] | 0.0214 µM | 10.5 µM |  |
| O=C(NCc1cccc(Cl)c1F)c1cn2c(c(O)c1=O)C(=O)N1CCCC[C@H]2C1 [Example 126, (7S)—N-(3-chloro-2-fluorobenzyl)-12-hydroxy-1,11-dioxo-1,4,5,6,7,11-hexahydro-3H-2,7-methanopyrido[1,2-a][1,4]diazonine-10-carboxamide] |  | 15.4 µM | 0.00475 µM |
| O=C(NCc1c(F)cc(F)cc1F)c1cn2c(c(O)c1=O)C(=O)N1CCCC2CC1 (single isomer, unassigned) [Example 24-1, 11-hydroxy-1,10-dioxo-N-(2,4,6-trifluorobenzyl)-1,3,4,5,6,10-hexahydro-2,6-ethanopyrido[1,2-a][1,4]diazocine-9-carboxamide] | 0.0103 µM | 13.6 µM |  |
| O=C(NCc1c(F)cc(F)cc1F)c1cn2c(c(O)c1=O)C(=O)N1C[C@H]2CCc2ccc(F)cc21 [Example 86-1, (12R)-3-fluoro-7-hydroxy-6,8-dioxo-N-(2,4,6-trifluorobenzyl)-6,8,13,14-tetrahydro-12H-5,12-methanobenzo[e]pyrido[1,2-a][1,4]diazonine-9-carboxamide] | 0.027 µM | > 30.3 µM |  |
| CC(=O)N1CCN2CC(C1)n1cc(C(=O)NCc3ccc(F)cc3F)c(=O)c(O)c1C2=O (stereo not drawn) [Example 31, 5-acetyl-N-(2,4-difluorobenzyl)-12-hydroxy-1,11-dioxo-1,4,5,6,7,11-hexahydro-3H-2,7-methanopyrido[1,2-a][1,4,7]triazonine-10-carboxamide] | > 0.1 µM | > 50 µM |  |
| O=C(NCc1ccc(F)cc1F)c1cn2c(c(O)c1=O)C(=O)N1CCc3cc(Cl)ccc3[C@H]2C1 [Example 140-1, (13S)-10-chloro-N-(2,4-difluorobenzyl)-4-hydroxy-3,5-dioxo-3,5,8,13-tetrahydro-7H-6,13-methanobenzo[g]pyrido[1,2-a][1,4]diazonine-2-carboxamide] | 0.0241 µM | 14.6 µM |  |
| O=C(NCc1ccc(F)cc1F)c1cn2c(c(O)c1=O)C(=O)N1Cc3ccc(Cl)cc3C[C@@H]2C1 (single isomer, unassigned) [Example 128-2] | 0.00737 µM | > 50 µM |  |
| O=C(NCc1ccc(Cl)cc1Cl)c1cn2c(c(O)c1=O)C(=O)N1CCCC[C@H]2C1 [Example 153, (7S)—N-(2,4-dichlorobenzyl)-12-hydroxy-1,11-dioxo-1,4,5,6,7,11-hexahydro-3H-2,7-methanopyrido[1,2-a][1,4]diazonine-10-carboxamide] | 0.0298 µM | 5.61 µM |  |

The next lines start with results.

| EC50 ([2]; read-out: EC50) | Compound | CC50 at 5 days [1] | EC50 [2] |
| --- | --- | --- | --- |
| 0.00285 µM | O=C(NCc1ccc(F)c(Cl)c1F)c1cn2c(c(O)c1=O)C(=O)N1C[C@@H]2CCCc2ccccc21 [Example 97-1, (6S)—N-(3-chloro-2,4-difluorobenzyl)-1-hydroxy-2,15-dioxo-2,6,7,8,9,15-hexahydro-6,14-methanobenzo[e]pyrido[1,2-a][1,4]diazecine-3-carboxamide] | 6.06 µM |  |
| 0.0039 µM | O=C(NCc1ccc(F)cc1F)c1cn2c(c(O)c1=O)C(=O)N1CCCOCC2C1 (racemic) [rac-1, N-(2,4-Difluorobenzyl)-13-hydroxy-1,12-dioxo-1,4,5,7,8,12-hexahydro-3H-2,8-methanopyrido[1,2-d][1,4,7]oxadiazecine-11-carboxamide] | > 47.9 µM |  |
| 0.00477 µM | Cc1noc2c1C[C@H]1CN(C2)C(=O)c2c(O)c(=O)c(C(=O)NCc3c(F)cc(F)cc3F)cn21 (single isomer, unassigned) [Example 135-2] | > 50 µM |  |
| 0.0014 µM | CC12CCCCN(C1)C(=O)c1c(O)c(=O)c(C(=O)NCc3c(F)cc(F)cc3F)cn12 (stereo not drawn) [Example 18, 12-hydroxy-7-methyl-1,11-dioxo-N-(2,4,6-trifluorobenzyl)-1,4,5,6,7,11-hexahydro-3H-2,7-methanopyrido[1,2-a][1,4]diazonine-10-carboxamide] | 29.4 µM |  |
| 0.00302 µM | COC1CCCN2C[C@H]1n1cc(C(=O)NCc3c(F)cc(F)cc3F)c(=O)c(O)c1C2=O (stereo partly drawn) [Example 99-2, (7R)-12-hydroxy-6-methoxy-1,11-dioxo-N-(2,4,6-trifluorobenzyl)-1,4,5,6,7,11-hexahydro-3H-2,7-methanopyrido[1,2-a][1,4]diazonine-10-carboxamide] | > 23.4 µM |  |
| 0.00232 µM | CCC1CCCN2CC1n1cc(C(=O)NCc3ccc(F)cc3F)c(=O)c(O)c1C2=O (stereo not drawn) [Example 106, N-(2,4-difluorobenzyl)-6-ethyl-12-hydroxy-1,11-dioxo-1,4,5,6,7,11-hexahydro-3H-2,7-methanopyrido[1,2-a][1,4]diazonine-10-carboxamide] | 6.84 µM |  |
| 0.00585 µM | Cn1ncc2c1CC[C@H]1CN2C(=O)c2c(O)c(=O)c(C(=O)NCc3c(F)cc(F)cc3F)cn21 [Example 85-2, (11S)-6-hydroxy-1-methyl-5,7-dioxo-N-(2,4,6-trifluorobenzyl)-1,5,7,11,12,13-hexahydro-4,11-methanopyrazolo[4,3-e]pyrido[1,2-a][1,4]diazonine-8-carboxamide] | > 49.3 µM |  |
| 0.00121 µM | C[C@H]1CCCN2C[C@H]1n1cc(C(=O)NCc3c(F)cc(F)cc3F)c(=O)c(O)c1C2=O [Example 170, (6S,7S)-12-hydroxy-6-methyl-1,11-dioxo-N-(2,4,6-trifluorobenzyl)-1,4,5,6,7,11-hexahydro-3H-2,7-methanopyrido[1,2-a][1,4]diazonine-10-carboxamide] | 9.86 µM |  |
| 0.0019 µM | CCC1(F)CCCN2CC1n1cc(C(=O)NCc3ccc(F)cc3F)c(=O)c(O)c1C2=O (stereo not drawn) [Example 105, N-(2,4-difluorobenzyl)-6-ethyl-6-fluoro-12-hydroxy-1,11-dioxo-1,4,5,6,7,11-hexahydro-3H-2,7-methanopyrido[1,2-a][1,4]diazonine-10-carboxamide] | 22.3 µM |  |
| 0.00153 µM | COC1CCCN2C[C@@H]1n1cc(C(=O)NCc3c(F)cc(F)cc3F)c(=O)c(O)c1C2=O (stereo partly drawn) [Example 99-1, (7S)-12-hydroxy-6-methoxy-1,11-dioxo-N-(2,4,6-trifluorobenzyl)-1,4,5,6,7,11-hexahydro-3H-2,7-methanopyrido[1,2-a][1,4]diazonine-10-carboxamide] | > 22.2 µM |  |
